Experimental data taken from US11339193B2, “CDP protein secretion inhibitors” (KEZAR LIFE SCIENCES, priority 2018, dated 2022).
Where two headings read alike, the source gives them in different places. Numbered stars: 1 amine (or outer) side, 2 acyl side, 3 side chain; on linkers, the order of the positions; unused ones are H or OH. Square brackets hold non-standard residues; d marks the D form. Peptide text beside a SMILES is read from it. NMeAla(5-Cl-benzothien-3-yl) = CN[C@@H](Cc1csc2ccc(Cl)cc12)C(=O)O; X19 = CN([C@@H](Cc1cn(Cc2ccc(Cl)cc2)c2ccccc12)C(=O)[*:2])[*:1]; X14 = CC#CCn1cc(C[C@@H](C(=O)[*:2])N(C)[*:1])c2ccccc21; X16 = CN([C@@H](Cc1csc2c(Cl)cccc12)C(=O)[*:2])[*:1]; Ala(1-cyclohexenyl) = N[C@@H](CC1=CCCCC1)C(=O)O; Butanoyl(2R-oxy,4-CN) = N#CCC[C@@H](O)C(=O)O; Abu(4,4,4-F3) = N[C@@H](CC(F)(F)F)C(=O)O; X12 = O=C([C@H](CC1=CCCC1)N[*:1])[*:2]; NMeL = CN[C@@H](CC(C)C)C(=O)O; NMeA = CN[C@@H](C)C(=O)O

Columns and labels:
Type in all cases: cell-based
[1] = test system: U266B1 multiple myeloma cell line; assay: U266 assay (cell viability, Celltiter-Glo); conditions: Homo sapiens, U-266
Experimental: Cells were plated in 384-well tissue culture plates and treated with compound dilutions in DMSO/media. Plates were incubated at 37° C., 5% CO2 for 48 hours. After 48 hours, Celltiter-Glo@ (Promega) was added to each well and luciferase signal was quantified using Tecan Infinite M1000 Pro for cell viability determination.

[2] = test system: PD1-ss+10aa/Gaussia Luciferase; assay: Dox induced PD1-ss-Gluc assay
In short: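 Stable Flp-In 293 T-REx line expressing doxycycline-inducible Gaussia luciferase fused to the PD1 signal sequence plus 10 amino acids. Cells plated the day before, then exposed to compound dilutions in DMSO/media containing doxycycline at 37 °C, 5% CO2.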

[3] = test system: Prl-ss+10aa/Gaussia Luciferase; assay: Prl-ss-Gluc assay (constitutively active or 24 hr Dox inducible)
Description: Constitutively Active Prl-ss-Gluc Assay
Flp-In 293 T-REx™ cells were transfected with pcDNA™5/FRT plasmid inserted with cDNA encoding Gaussia Luciferase fused to the 3′ end of cDNA encoding Prl signal sequence plus 10 amino acids (N-[…]-C) (SEQ ID NO:4). Transfected cells were selected for resistance to the selectable markers Hygromycin and Blasticidin to create a stable cell line that constitutively expressed the Prlss+10aa/Gaussia Luciferase fusion protein. The day before assay, cells were trypsinized and plated in 384-well tissue culture plates. The next day, culture media was removed from the wells and replaced with fresh media. Compound dilutions in DMSO/media were added to the wells and incubated at 37° C., 5% CO2.
24 hr Dox Inducible Prl-ss-Gluc Assay
Flp-In 293 T-REx™ cells were transfected with pcDNA™5/FRT/TO plasmid inserted with cDNA encoding Gaussia Luciferase fused to the 3′ end of cDNA encoding Prl signal sequence plus 10 amino acids (N-[…]-C) (SEQ ID NO:5). Transfected cells were selected for resistance to the selectable markers Hygromycin and Blasticidin to create a stable cell line that contained the Prl-ss+10aa/Gaussia Luciferase cDNA insert whose expression was regulated under the T-REx™ system. The day before assay, cells were trypsinized and plated in 384-well tissue culture plates. The next day, compound dilutions in DMSO/media containing doxycycline were added to the wells and incubated at 37° C., 5% CO2.

[4] = test system: NCI-H929 multiple myeloma cell line; assay: H929 assay (cell viability, Celltiter-Glo); conditions: Homo sapiens, read-out: H929 EC50
In short: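 Cells plated in RPMI 1640 with 10% FBS and 2 mM glutamine, treated with compound dilutions in DMSO/media. Incubation 48 h at 37° C, 5% CO2. Viability from luciferase luminescence signal.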

HER3ss-Gluc = assay: HER3ss assay
Experimental: The mature domain of secreted luciferase from Gaussia princeps (GLuc) was cloned into pcDNA5/FRT/TO. The signal sequence plus four amino acids of the mature domain from HER3 ([…]) (SEQ ID NO:8) were cloned upstream of GLuc mature domain and used in transient transfection experiment. HEK-293T T-rex cells were cultured in Dulbecco's modified Eagle's medium with 10% FBS at 5% CO2. Cells were plated 1×10e6 cells per well in a 6-well plate and incubated for 6 h. Cells were transiently transfected with HER3ss-Gluc using Lipofectamine 2000 (Invitrogen). After overnight incubation, transfected cells were replated in a clear-bottomed, black 96-well plate at a density of 20,000 cells per well. Six hours after plating, the cells were treated with doxycycline (1 μg/ml) and increasing concentrations of the indicated compounds for 24 h. Secreted luciferase in the conditioned media was quantified by luminescence using the BioLux Gaussia Luciferase Assay Kit (New England Biolabs, Ipswich, Mass., USA) and a SpectraMax M5 plate reader (Molecular Devices).

[5] = test system: TNFα-FL/Gaussia Luciferase; assay: Dox induced TNFα-FL-Gluc assay
In short: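 Stable Flp-In 293 T-REx line expressing full-length TNFα (aa 1-233) fused at its C-terminus to Gaussia luciferase under doxycycline-inducible control. Cells plated the day before, then given compound dilutions in DMSO/media containing doxycycline and incubated at 37 °C, 5% CO2.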

[6] = HEK-293T T-rex cells, transient transfection, doxycycline, 24 h; read-out: HER3 ss IC50
[7] = I.A.; read-out: TNFa FL Gluc IC50
[8] = Flp-In 293 T-REx cells, doxycycline, 24 hours; read-out: PD1ss Gluc IC50
[9] = NCI-H929, 48 hours, cell viability
[10] = Flp-In 293 T-REx cells, doxycycline, 24 hours; read-out: TNFa FL Gluc IC50
[11] = Flp-In 293 T-REx cells, 24 hours; read-out: Prl IC50

Row | SMILES | EC50 ([1]; I.A.) [µM] | IC50 ([2]; I.A.; read-out: PD1ss Gluc IC50) [µM] | IC50 ([3]; I.A.; read-out: Prl IC50) [µM] | EC50 ([4]; NCI-H929, I.A.) [µM] | IC50 (HER3ss-Gluc; [6]) [µM] | IC50 [5, 7] [µM] | IC50 [2, 8] [µM] | EC50 [4, 9] [µM] | IC50 [5, 10] [µM] | IC50 [3, 11] [µM] | EC50 ([1]; 48 hours, cell viability) [µM] | IC50 ([2]; read-out: PD1ss Gluc IC50; Flp-In 293 T-REx cells, doxycycline, 24 hours) [µM] | IC50 ([3]; read-out: Prl IC50; Flp-In 293 T-REx cells, 24 hours) [µM] | EC50 ([4]; NCI-H929, 48 h) [µM] | IC50 (HER3ss-Gluc; read-out: HER3 ss IC50; HEK-293T T-rex cells, transient transfection, doxycycline, 24 h) [µM] | IC50 ([5]; read-out: TNFa FL Gluc IC50; Flp-In 293 T-REx cells, doxycycline, 24 hours) [µM] | EC50 ([4]; NCI-H929, 48 hours, cell viability, μM) [µM]
1 | CC(C)C[C@@H]1NC(=O)[C@H](Cc2csc3ccc(Cl)cc23)N(C)C(=O)[C@H](CC2=CCCCC2)NC(=O)[C@H](CC(C)C)N(C)C(=O)[C@H](CC2=CCCCC2)NC(=O)[C@@H](CCC#N)OC(=O)[C@H](C)N(C)C1=O [C-87] (cyclo(L[NMeA][Butanoyl(2R-oxy,4-CN)][Ala(1-cyclohexenyl)][NMeL][Ala(1-cyclohexenyl)][NMeAla(5-Cl-benzothien-3-yl)])) | > 25 | > 25 | > 25 | > 25 | 0.011 | > 25 |  |  |  |  |  |  |  |  |  |  | 
2 | CC(C)C[C@@H]1NC(=O)[C@H](CC(C)C)N(C)C(=O)[C@H](CC(F)(F)F)NC(=O)[C@@H](CCC#N)OC(=O)[C@H](C)N(C)C(=O)[C@H](CC2=CCCCC2)NC(=O)[C@H](Cc2csc3ccc(Cl)cc23)N(C)C1=O [C-88] (cyclo(L[NMeAla(5-Cl-benzothien-3-yl)][Ala(1-cyclohexenyl)][NMeA][Butanoyl(2R-oxy,4-CN)][Abu(4,4,4-F3)][NMeL])) | > 25 |  | > 25 |  | 0.065 |  | 0.149 | 5.64 | 1.38 |  |  |  |  |  |  |  | 
3 | CC(C)C[C@@H]1NC(=O)[C@H](CC(C)C)N(C)C(=O)[C@H](CC(F)(F)F)NC(=O)[C@@H](CCC#N)OC(=O)[C@H](C)N(C)C(=O)[C@H](CC2=CCCC2)NC(=O)[C@H](Cc2csc3ccc(Cl)cc23)N(C)C1=O [C-89] (cyclo(L[NMeAla(5-Cl-benzothien-3-yl)][X12][NMeA][Butanoyl(2R-oxy,4-CN)][Abu(4,4,4-F3)][NMeL])) | > 25 |  | > 25 |  | 0.033 |  | 0.172 | 3.73 | 0.879 |  |  |  |  |  |  |  | 
4 | CC(C)C[C@@H]1NC(=O)[C@H](Cc2csc3ccc(Cl)cc23)N(C)C(=O)[C@H](CC(F)(F)F)NC(=O)[C@H](CC(C)C)N(C)C(=O)[C@H](CC(F)(F)F)NC(=O)[C@@H](CCC#N)OC(=O)[C@H](C)N(C)C1=O [C-90] (cyclo(L[NMeA][Butanoyl(2R-oxy,4-CN)][Abu(4,4,4-F3)][NMeL][Abu(4,4,4-F3)][NMeAla(5-Cl-benzothien-3-yl)])) | > 25 |  | > 25 | > 25 | 0.038 |  | 0.52 |  | 2.88 |  |  |  |  |  |  |  | 
5 | CC#CCn1cc(C[C@H]2C(=O)N[C@@H](CC(C)C)C(=O)N(C)[C@@H](C)C(=O)O[C@H](CCC#N)C(=O)N[C@@H](CC(F)(F)F)C(=O)N(C)[C@@H](CC(C)C)C(=O)N[C@@H](CC(F)(F)F)C(=O)N2C)c2ccccc21 [C-91] (cyclo(L[NMeA][Butanoyl(2R-oxy,4-CN)][Abu(4,4,4-F3)][NMeL][Abu(4,4,4-F3)][X14])) | > 25 |  |  |  | 0.124 |  | 0.274 | 4.88 | 0.986 | 9.8 |  |  |  |  |  |  | 
6 | CC(C)C[C@@H]1NC(=O)[C@H](Cc2csc3ccc(Cl)cc23)N(C)C(=O)[C@H](CC(F)(F)F)NC(=O)[C@H](CC(C)C)N(C)C(=O)[C@H](CC(C)C)NC(=O)[C@@H](CCC#N)OC(=O)[C@H](C)N(C)C1=O [C-92] (cyclo(L[NMeA][Butanoyl(2R-oxy,4-CN)]L[NMeL][Abu(4,4,4-F3)][NMeAla(5-Cl-benzothien-3-yl)])) | > 25 |  | > 25 |  | 0.098 |  | 0.813 | 9.88 | 3.86 |  |  |  |  |  |  |  | 
7 | CC(C)C[C@@H]1NC(=O)[C@H](Cc2csc3ccc(Cl)cc23)N(C)C(=O)[C@H](CC(C)C)NC(=O)[C@H](CC(C)C)N(C)C(=O)[C@H](CC(C)C)NC(=O)[C@@H](CCC#N)OC(=O)[C@H](C)N(C)C1=O [C-93] (HELM PEPTIDE1{L.[meA].[N#CCC[C@@H](O[*:1])C(=O)[*:2]].L.[meL].L.[CN([C@@H](Cc1csc2ccc(Cl)cc12)C(=O)[*:2])[*:1]]}$PEPTIDE1,PEPTIDE1,1:R1-7:R2$$$V2.0) |  |  |  |  | 0.038 |  | 0.278 | 3.39 | 0.672 | 5.71 | 16.2 |  |  |  |  |  | 
8 | CC(C)C[C@@H]1NC(=O)[C@H](Cc2csc3c(Cl)cccc23)N(C)C(=O)[C@H](CC(C)C)NC(=O)[C@H](CC(C)C)N(C)C(=O)[C@H](CC(F)(F)F)NC(=O)[C@@H](CCC#N)OC(=O)[C@H](C)N(C)C1=O [C-94] (cyclo(L[NMeA][Butanoyl(2R-oxy,4-CN)][Abu(4,4,4-F3)][NMeL]L[X16])) | > 25 |  |  |  | 0.074 |  | 0.425 | 6.05 | 1.24 | 19.3 |  |  |  |  |  |  | 
9 | CC(C)C[C@@H]1NC(=O)[C@H](Cc2cn(Cc3ccc(Cl)cc3)c3ccccc23)N(C)C(=O)[C@H](CC(C)C)NC(=O)[C@H](CC(C)C)N(C)C(=O)[C@H](CC(F)(F)F)NC(=O)[C@@H](CCC#N)OC(=O)[C@H](C)N(C)C1=O [C-95] (cyclo(L[NMeA][Butanoyl(2R-oxy,4-CN)][Abu(4,4,4-F3)][NMeL]L[X19])) | > 25 |  |  |  |  |  |  |  |  |  |  | 0.019 | 0.391 | 0.588 | 0.035 | 0.093 | 
10 | CC(C)C[C@@H]1NC(=O)[C@H](Cc2csc3ccc(Cl)cc23)N(C)C(=O)[C@H](CC2=CCCC2)NC(=O)[C@H](CC(C)C)N(C)C(=O)[C@H](CC(F)(F)F)NC(=O)[C@@H](CCC#N)OC(=O)[C@H](C)N(C)C1=O [C-96] (cyclo(L[NMeA][Butanoyl(2R-oxy,4-CN)][Abu(4,4,4-F3)][NMeL][X12][NMeAla(5-Cl-benzothien-3-yl)])) | > 25 |  | > 25 |  | 0.006 |  | 0.472 | 8.4 | 3.84 |  |  |  |  |  |  |  | 
11 | CC(C)C[C@@H]1NC(=O)[C@H](Cc2csc3ccc(Cl)cc23)N(C)C(=O)[C@H](CC2=CCCCC2)NC(=O)[C@H](CC(C)C)N(C)C(=O)[C@H](CC(F)(F)F)NC(=O)[C@@H](CCC#N)OC(=O)[C@H](C)N(C)C1=O [C-97] (cyclo(L[NMeA][Butanoyl(2R-oxy,4-CN)][Abu(4,4,4-F3)][NMeL][Ala(1-cyclohexenyl)][NMeAla(5-Cl-benzothien-3-yl)])) | > 25 |  | > 25 |  | 0.006 | > 25 | 0.709 |  |  |  |  |  |  |  |  |  | > 20
12 | CC(C)C[C@@H]1NC(=O)[C@H](Cc2csc3ccc(Cl)cc23)N(C)C(=O)[C@H](CC(C)C)NC(=O)[C@H](CC(C)C)N(C)C(=O)[C@H](CC2=CCCC2)NC(=O)[C@@H](CCC#N)OC(=O)[C@H](C)N(C)C1=O [C-98] (cyclo(L[NMeA][Butanoyl(2R-oxy,4-CN)][X12][NMeL]L[NMeAla(5-Cl-benzothien-3-yl)])) | > 25 |  |  |  | 0.035 |  | 0.259 | 4 | 0.889 | 17.9 |  |  |  |  |  |  | 
